Source: patent US10479780B2, “Aminopyrazole derivatives” (Chugai Seiyaku Kabushiki Kaisha, priority 2015, dated 2019)

Assays:
Type in all cases: biochemical
human Yes1 enzyme = target: T1, human Yes1 enzyme (Homo sapiens, UniProt P07947); assay: Yes1 enzyme inhibitory activity (time-resolved fluorometry, biotinylated peptide phosphorylation); conditions: biotinylated peptide phosphorylation, read-out: YES_IC50
T1 construct: made in house
How it was run: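 Inhibition was expressed against a compound-free control to give IC50, using TR-FRET read-out (Eu-cryptate anti-pTyr antibody, streptavidin-XL665).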

human Src enzyme = target: T2, human Src enzyme (Homo sapiens, UniProt P12931); assay: Src enzyme inhibitory activity (time-resolved fluorometry, biotinylated peptide phosphorylation); conditions: biotinylated peptide phosphorylation, read-out: SRC_IC50
T2 construct: purchased Carna Biosciences, Inc. 08-173
How it was run: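 Compounds were tested for blocking tyrosine phosphorylation of a biotinylated peptide substrate by recombinant human Src. Phosphorylated product was quantified by time-resolved fluorometry using europium cryptate and XL665 conjugates, and IC50 was calculated against the compound-free control.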

human Lck enzyme = target: T3, human Lck enzyme (Homo sapiens, UniProt P06239); assay: Lck enzyme inhibitory activity (time-resolved fluorometry, biotinylated peptide phosphorylation); conditions: biotinylated peptide phosphorylation, read-out: LCK_IC50
T3 construct: purchased Carna Biosciences, Inc. 08-170
How it was run: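 Readout pairs a europium cryptate-labelled anti-phosphotyrosine antibody with XL665-streptavidin, measured by time-resolved fluorescence. IC50 derived from percent inhibition against untreated controls.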

T2 sequence (P12931 whole entry): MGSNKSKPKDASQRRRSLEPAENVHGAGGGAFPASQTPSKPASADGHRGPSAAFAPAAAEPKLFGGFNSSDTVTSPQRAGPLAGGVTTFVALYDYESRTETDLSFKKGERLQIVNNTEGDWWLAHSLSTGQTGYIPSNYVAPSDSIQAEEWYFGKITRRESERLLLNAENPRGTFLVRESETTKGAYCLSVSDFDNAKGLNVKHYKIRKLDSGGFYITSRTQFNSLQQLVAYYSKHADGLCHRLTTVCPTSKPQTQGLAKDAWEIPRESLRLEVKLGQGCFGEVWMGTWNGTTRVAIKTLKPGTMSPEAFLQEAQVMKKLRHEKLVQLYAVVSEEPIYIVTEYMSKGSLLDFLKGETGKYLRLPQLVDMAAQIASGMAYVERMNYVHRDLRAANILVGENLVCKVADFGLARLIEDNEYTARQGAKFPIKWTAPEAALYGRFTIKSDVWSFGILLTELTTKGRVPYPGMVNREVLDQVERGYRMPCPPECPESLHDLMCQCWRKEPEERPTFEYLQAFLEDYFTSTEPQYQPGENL
T3 sequence (P06239 whole entry): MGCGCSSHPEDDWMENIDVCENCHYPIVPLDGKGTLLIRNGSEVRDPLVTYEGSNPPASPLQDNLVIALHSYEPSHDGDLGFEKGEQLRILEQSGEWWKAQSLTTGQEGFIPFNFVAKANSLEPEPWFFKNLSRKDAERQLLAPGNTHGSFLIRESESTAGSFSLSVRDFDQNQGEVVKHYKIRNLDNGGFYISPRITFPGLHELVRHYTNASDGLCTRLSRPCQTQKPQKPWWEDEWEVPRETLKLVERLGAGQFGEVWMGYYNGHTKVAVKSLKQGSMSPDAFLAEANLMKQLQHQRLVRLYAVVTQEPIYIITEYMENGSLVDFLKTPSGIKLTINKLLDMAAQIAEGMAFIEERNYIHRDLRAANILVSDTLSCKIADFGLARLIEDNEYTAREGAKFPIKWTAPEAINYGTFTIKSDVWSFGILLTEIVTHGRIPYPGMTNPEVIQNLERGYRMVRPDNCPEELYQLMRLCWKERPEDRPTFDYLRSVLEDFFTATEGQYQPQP
T1 sequence (P07947 whole entry): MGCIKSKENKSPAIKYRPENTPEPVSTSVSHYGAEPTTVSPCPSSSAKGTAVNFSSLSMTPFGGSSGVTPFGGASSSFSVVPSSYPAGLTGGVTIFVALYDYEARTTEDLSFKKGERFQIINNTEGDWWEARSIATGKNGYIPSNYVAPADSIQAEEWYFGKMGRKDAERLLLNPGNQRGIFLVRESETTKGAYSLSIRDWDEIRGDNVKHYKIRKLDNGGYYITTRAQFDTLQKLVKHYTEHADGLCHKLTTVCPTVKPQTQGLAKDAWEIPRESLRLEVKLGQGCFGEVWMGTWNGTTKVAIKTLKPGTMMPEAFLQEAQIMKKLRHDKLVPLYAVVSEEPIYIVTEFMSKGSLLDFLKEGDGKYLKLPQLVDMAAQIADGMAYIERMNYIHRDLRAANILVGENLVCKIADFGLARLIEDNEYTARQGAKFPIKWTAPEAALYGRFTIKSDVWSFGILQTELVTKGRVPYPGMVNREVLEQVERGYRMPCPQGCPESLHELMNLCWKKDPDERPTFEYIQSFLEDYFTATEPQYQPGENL

| Compound | IC50 (human Yes1 enzyme) | IC50 (human Src enzyme) | IC50 (human Lck enzyme) |
| --- | --- | --- | --- |
| Cc1cc(Oc2ccccc2F)ccc1-n1ncc(C(=O)c2cc3cc(OCC(F)F)c(C4CCN(C(=O)CN)CC4)cc3[nH]2)c1N [Example 4-18-004, 2-amino-1-[4-[2-[5-amino-1-[4-(2-fluorophenoxy)-2-methylphenyl]pyrazole-4-carbonyl]-5-(2,2-difluoroethoxy)-1H-indol-6-yl]piperidin-1-yl]ethanone] | 1.6 nM | 16 nM | 9.2 nM |
| COc1cc2cc(C(=O)c3cnn(-c4cnc(Oc5c(F)cccc5F)cc4C)c3N)[nH]c2cc1NS(=O)(=O)CCCF [Example 4-19-001, N-(2-(5-amino-1-(6-(2,6-difluorophenoxy)-4-methylpyridin-3-yl)-1H-pyrazole-4-carbonyl)-5-methoxy-1H-indol-6-yl)-3-fluoropropane-1-sulfonamide] | 0.83 nM | 28 nM | 3.9 nM |
| Cc1cc(Oc2ccccc2F)ccc1-n1ncc(C(=O)c2cc3cc(F)c(NS(N)(=O)=O)cc3[nH]2)c1N [Example 4-20-001, 2-[5-amino-1-[4-(2-fluorophenoxy)-2-methylphenyl]pyrazole-4-carbonyl]-5-fluoro-6-(sulfamoylamino)-1H-indole] | 0.64 nM | 31 nM | 3.5 nM |
| Cc1cc(Oc2cccc(F)c2F)ccc1-n1ncc(C(=O)c2cc3cc(F)c(NS(N)(=O)=O)cc3[nH]2)c1N [Example 4-20-002, 2-[5-amino-1-[4-(2,3-difluorophenoxy)-2-methylphenyl]pyrazole-4-carbonyl]-5-fluoro-6-(sulfamoylamino)-1H-indole] | 1 nM | 50 nM | 8.3 nM |
| Cc1cc(-n2ncc(C(=O)c3cc4cc(F)c(NS(N)(=O)=O)cc4[nH]3)c2N)ccc1Oc1ccccc1F [Example 4-20-003, 2-[5-amino-1-[4-(2-fluorophenoxy)-3-methylphenyl]pyrazole-4-carbonyl]-5-fluoro-6-(sulfamoylamino)-1H-indole] | 1.4 nM | 15 nM | 2.1 nM |
| Cc1cc(Oc2c(F)cccc2F)ncc1-n1ncc(C(=O)c2cc3cc(OCC(F)F)c(N4CCCC4=O)cc3[nH]2)c1N [Example 4-21-001, 1-{2-{5-amino-1-[6-(2,6-difluorophenoxy)-4-methylpyridin-3-yl]pyrazole-4-carbonyl}-5-(2,2-difluoroethoxy)-1H-indol-6-yl}pyrrolidin-2-one] | 3.7 nM | 13 nM | 6.2 nM |
| Cc1cc(Oc2ccccc2F)ccc1-n1ncc(C(=O)c2cc3cc(OCC(F)F)c(N4CCCC4=O)cc3[nH]2)c1N [Example 4-21-002, 1-[2-[5-amino-1-[4-(2-fluorophenoxy)-2-methylphenyl]pyrazole-4-carbonyl]-5-(2,2-difluoroethoxy)-1H-indol-6-yl]pyrrolidin-2-one] | 0.89 nM | 5.4 nM | 2.8 nM |
| Cc1cc(Oc2ccccc2F)ccc1-n1ncc(C(=O)c2cc3cc(OCC(F)F)c(N4CCOC4=O)cc3[nH]2)c1N [Example 4-21-003, 3-[2-[5-amino-1-[4-(2-fluorophenoxy)-2-methylphenyl]pyrazole-4-carbonyl]-5-(2,2-difluoroethoxy)-1H-indol-6-yl]-1,3-oxazolidin-2-one] | 0.53 nM | 2.4 nM | 1.5 nM |
| Cc1cc(Oc2ccccc2F)cc(F)c1-n1ncc(C(=O)c2cc3cc(OCC(F)F)c(N4CCCC4=O)cc3[nH]2)c1N [Example 4-21-004, 1-[2-[5-amino-1-[2-fluoro-4-(2-fluorophenoxy)-6-methylphenyl]pyrazole-4-carbonyl]-5-(2,2-difluoroethoxy)-1H-indol-6-yl]pyrrolidin-2-one] | 1 nM | 9.2 nM | 3 nM |
| Cc1cc(Oc2c(F)cccc2F)ncc1-n1ncc(C(=O)c2cc3cc(OCC(F)F)c(N4CCOC4=O)cc3[nH]2)c1N [Example 4-21-005, 3-[2-[5-amino-1-[6-(2,6-difluorophenoxy)-4-methylpyridin-3-yl]pyrazole-4-carbonyl]-5-(2,2-difluoroethoxy)-1H-indol-6-yl]-1,3-oxazolidin-2-one] | 1.2 nM | 11 nM | 4.3 nM |
| Cc1cc(Oc2ccccc2F)ccc1-n1ncc(C(=O)c2cc3cc(OC(F)F)c(N4CCCC4=O)cc3[nH]2)c1N [Example 4-21-006, 1-[2-[5-amino-1-[4-(2-fluorophenoxy)-2-methylphenyl]pyrazole-4-carbonyl]-5-(difluoromethoxy)-1H-indol-6-yl]pyrrolidin-2-one] | 1.6 nM | 17 nM | 5.5 nM |
| Cc1cc(Oc2ccccc2F)ccc1-n1ncc(C(=O)c2cc3cc(OC(F)F)c(N4CCOC4=O)cc3[nH]2)c1N [Example 4-21-007, 3-[2-[5-amino-1-[4-(2-fluorophenoxy)-2-methylphenyl]pyrazole-4-carbonyl]-5-(difluoromethoxy)-1H-indol-6-yl]-1,3-oxazolidin-2-one] | 0.51 nM | 8.7 nM | 6.5 nM |
| Cc1cc(Oc2c(F)cccc2F)ncc1-n1ncc(C(=O)c2cc3cc(OC(F)F)c(N4CCCC4=O)cc3[nH]2)c1N [Example 4-21-008, 1-[2-[5-amino-1-[6-(2,6-difluorophenoxy)-4-methylpyridin-3-yl]pyrazole-4-carbonyl]-5-(difluoromethoxy)-1H-indol-6-yl]pyrrolidin-2-one] | 4.1 nM | 25 nM | 6.6 nM |
| Cc1cc(Oc2c(F)cccc2F)ncc1-n1ncc(C(=O)c2cc3cc(OC(F)F)c(N4CCOC4=O)cc3[nH]2)c1N [Example 4-21-009, 3-[2-[5-amino-1-[6-(2,6-difluorophenoxy)-4-methylpyridin-3-yl]pyrazole-4-carbonyl]-5-(difluoromethoxy)-1H-indol-6-yl]-1,3-oxazolidin-2-one] | 0.83 nM | 9.9 nM | 2.7 nM |
| Cc1cc(Oc2ccccc2F)ccc1-n1ncc(C(=O)c2cc3cc(OC(F)F)c(NS(=O)(=O)N4CCOCC4)cc3[nH]2)c1N [Example 4-22-001, N-(2-(5-amino-1-(4-(2-fluorophenoxy)-2-methylphenyl)-1H-pyrazole-4-carbonyl)-5-(difluoromethoxy)-1H-indol-6-yl)morpholine-4-sulfonamide] | 2.6 nM | 90 nM | 34 nM |
| Cc1cc(Oc2ccccc2F)ncc1-n1ncc(C(=O)c2cc3cc(OC(F)F)c(NS(=O)(=O)N4CCOCC4)cc3[nH]2)c1N [Example 4-22-002, N-[2-[5-amino-1-[6-(2-fluorophenoxy)-4-methylpyridin-3-yl]pyrazole-4-carbonyl]-5-(difluoromethoxy)-1H-indol-6-yl]morpholine-4-sulfonamide] | 3 nM | 240 nM | 68 nM |
| Cc1cc(Oc2c(F)cccc2F)ncc1-n1ncc(C(=O)c2cc3cc(OC(F)F)c(NS(=O)(=O)N4CCOCC4)cc3[nH]2)c1N [Example 4-22-003, N-[2-[5-amino-1-[6-(2,6-difluorophenoxy)-4-methylpyridin-3-yl]pyrazole-4-carbonyl]-5-(difluoromethoxy)-1H-indol-6-yl]morpholine-4-sulfonamide] | 2.9 nM | 170 nM | 62 nM |
| Cc1cc(Oc2ccccc2F)ncc1-n1ncc(C(=O)c2cc3cc(N4CCOCC4)c(NS(=O)(=O)N4CCOCC4)cc3[nH]2)c1N [Example 4-22-004, N-[2-[5-amino-1-[6-(2-fluorophenoxy)-4-methylpyridin-3-yl]pyrazole-4-carbonyl]-5-morpholin-4-yl-1H-indol-6-yl]morpholine-4-sulfonamide] | 1.2 nM | 360 nM | 78 nM |
| Cc1cc(Oc2ccccc2F)ccc1-n1ncc(C(=O)c2cc3cc(OCC(F)F)c(NS(=O)(=O)N4CCOCC4)cc3[nH]2)c1N [Example 4-22-005, N-[2-[5-amino-1-[4-(2-fluorophenoxy)-2-methylphenyl]pyrazole-4-carbonyl]-5-(2,2-difluoroethoxy)-1H-indol-6-yl]morpholine-4-sulfonamide] | 1.8 nM | 44 nM | 20 nM |
| Cc1cc(Oc2ccccc2F)ncc1-n1ncc(C(=O)c2cc3cc(OCC(F)F)c(NS(=O)(=O)N4CCOCC4)cc3[nH]2)c1N [Example 4-22-006, N-[2-[5-amino-1-[6-(2-fluorophenoxy)-4-methylpyridin-3-yl]pyrazole-4-carbonyl]-5-(2,2-difluoroethoxy)-1H-indol-6-yl]morpholine-4-sulfonamide] | 1.9 nM | 130 nM | 51 nM |
| Cc1cc(Oc2c(F)cccc2F)ncc1-n1ncc(C(=O)c2cc3cc(OCC(F)F)c(N4CCN(S(C)(=O)=O)CC4)cc3[nH]2)c1N [Example 4-23-001, {5-amino-1-[6-(2,6-difluorophenoxy)-4-methylpyridin-3-yl]pyrazol-4-yl}-[5-(2,2-difluoroethoxy)-6-(4-methylsulfonylpiperazin-1-yl)-1H-indol-2-yl]methanone] | 1.3 nM | 16 nM | 8.2 nM |
| Cc1cc(Oc2ccccc2F)ccc1-n1ncc(C(=O)c2cc3cc(OC(F)F)c(N4CCN(S(C)(=O)=O)CC4)cc3[nH]2)c1N [Example 4-23-002, [5-amino-1-[4-(2-fluorophenoxy)-2-methylphenyl]pyrazol-4-yl]-[5-(difluoromethoxy)-6-(4-methylsulfonylpiperazin-1-yl)-1H-indol-2-yl]methanone] | 1.6 nM | 44 nM | 20 nM |
